Experimental data published in patent US7612107B2, “Treatment and inhibition of disease conditions using flexible heteroarotinoids” (The Board of Regents of the University of Oklahoma, priority 2005, dated 2009).
Where two headings read alike, the source gives them in different places.

Columns and labels:
[1] = system: OVCAR-3 xenograft tumors; experiment: Histochemical and immunohistochemical evaluation of xenograft tumors (glands, MUC-1, TUNEL); type: in vivo, mouse; conditions: 10 mg/kg/day gavage, end of treatment
Procedure: Statistically significant higher levels of glands and MUC-1 expression in the tumors of treated animals in comparison to controls treated with sesame oil are indicated by asterisks (*) and were determined by t-tests. For gland formation, p<0.001 for SHetA2, p=0.097 for SHetA4, p=0.001 for SHet50, and p=0.007 for 4-HPR. For MUC-1 scores, p=0.011 for SHetA2, p=0.050 for SHetA4, p=0.040 for SHet50, and p=0.001 for 4-HPR. The higher levels of TUNEL scores in the tumors of treated animals in comparison to control animals approached significance (t-test, p=0.27 for SHetA2, p=0.48 for SHetA4, p=0.20 for SHet50, and p=0.12 for 4-HPR).
On the last day of treatment, the animals were sacrificed and then the tumors were removed, fixed in neutral buffered formalin and embedded in paraffin. […] MUC-1 expression was detected in tumor sections using a mouse monoclonal antibody to human MUC-1 (Pharmingen, San Diego, Calif.) and the Histostain-Plus AEC Kit (Zymed Laboratories, San Francisco, Calif.) according to manufacturers instructions. […] Tumor sections were scored for number of glands (quantified in one H&E stained sections and 3 MUC-1-stained sections) and MUC-1 and TUNEL staining (based on staining intensity and percent positive cells). […]

[2] = system: Thymidine Phosphorylase (TP); experiment: Real time rt-PCR and Western blot validation, thymidine phosphorylase; type: cell-based; conditions: OVCAR-3 1 μM (rt-PCR); A2780 10 μM (Western)
Procedure: FIG. 13. Real Time rt-PCR validation of SHetA2 inhibition of TP and TSP-1 mRNA Expression. OVCAR-3 cultures were treated with 1 μM SHetA2 for the indicated period of time prior to harvesting the cells and isolating RNA. cDNA was prepared and used in real time rt-PCR reactions. Real time rt-PCR was performed on cDNA from cultures various treatment times.
FIG. 14. Western blot validation of SHetA2 inhibition of TP and TSP4 protein expression. A2780 ovarian cancer cells were treated with 10 μM SHetA2 for the indicated amounts of time. Equal amounts of whole cell protein extracts were evaluated by Western blot.

[3] = system: EAhy.926 endothelial cells; experiment: Endothelial tube branching on matrigel; type: cell-based; conditions: 1, 5 and 10 μM; 20 hours
Procedure: (§1) The graph on the left provides quantification of the endothelial branches for each treatment dose.
(§2) The increased thickness of the vessels at 1 μM and the increasing proportions of solitary clumps of cells at 5 and 10 μM indicate that SHetA2 is inhibiting endothelial cell migration. To determine if this anti-angiogenic activity was due to growth inhibition or cytotoxicity. The viability of the endothelial cells treated with SHetA2 for 24 hours was evaluated. […] This confirms the therapeutic ratio observed in previous studies.

[4] = system: EAhy.926 endothelial cells; experiment: Growth/viability of endothelial cells versus ovarian cancer cell lines; type: cell-based; conditions: 24 hours
Procedure: as §1, §2

[5] = system: Raldh2-/- embryos; conditions: for No. of −/− rescued / No. of −/− unrescued: E10.25; for Teratogenesis: mouse, in vivo, po
Procedure: Briefly, retinoids were dissolved in corn oil and administered orally to timed-pregnant Raldh2_/_mice at 12-h intervals on E7.25, E7.75, and E8.25. Dosages varied from 0.025 to 25 mg/kg. At E10.25, embryos were analyzed morphologically to determine whether Raldh2_/_embryos were rescued or whether wild-type embryos had suffered teratogenesis. Detection of embryonic RA was performed in situ in embryos carrying the RARE-lacZ RA-reporter gene by staining for beta-galactosidase activity for 10 h (45).
A mouse model that lacks retinaldehyde dehydrogenase (Raldh2) due to null mutations was used to test the ability of Flex-Hets to substitute for retinoic acid (RA) and induce birth defects. […] We examined the relative ability of all-trans-RA, 9-cis-RA, receptor-specific synthetic retinoids and retinoic acid receptor independent Flex-Hets to rescue the Raldh2_/_embryonic lethal phenotype.

[6] = system: blood vessel density in bFGF/VEGF-treated CAMs; experiment: Chorioallantoic membrane (CAM) assay; type: in vivo; conditions: 5 μM SHetA2
Procedure: FIG. 8. Effect of 5 μM SHetA2 on blood vessel density in the CAM assay. The mean±SEM blood vessel density per treatment as compared to bFGF/VEGF-treated CAMs; *=p<0.05 and **=p<0.001 as compared to bFGF/VEGF-treated CAMs as determined by one-way ANOVA and Neuman-Keuls post-test.
The CAM assay that was used is based upon the original procedure by Jakob et al. (36) with modifications made by our laboratory (37, 38) (see FIG. 8).

CC1(C)CC(C)(C)c2cc(NC(=S)Nc3ccc([N+](=O)[O-])cc3)ccc2S1 [SHetA2]
MUC-1 expression in xenograft tumors ([1]; vs control): increase staining | Gland formation in xenograft tumors ([1]; vs untreated control): greatest degree of gland induction | Expression of TP at the RNA and protein levels [2]: inhibit expression | Inhibition of angiogenesis: endothelial tube branching [3]: dose-responsive inhibition | Growth inhibition of endothelial cells compared with A2780 and OVCAR-3 [4]: much less growth inhibited | Rescue of Raldh2−/− embryos (in words) ([5]; 2.5 mg/kg): no rescue | Rescue of Raldh2−/− embryos (in words) ([5]; 10 or 25 mg/kg): no rescue | No. of −/− rescued ([5]; Dose 2.5 mg/kg oral): 0 | No. of −/− unrescued ([5]; Dose 2.5 mg/kg oral): 1 | No. of −/− rescued ([5]; Dose 10 mg/kg oral): 0 | No. of −/− unrescued ([5]; Dose 10 mg/kg oral): 5 | No. of −/− rescued ([5]; Dose 25 mg/kg oral): 0 | No. of −/− unrescued ([5]; Dose 25 mg/kg oral): 1 | Teratogenesis ([5]; 2.5 mg/kg): 0 | Teratogenesis ([5]; 10 mg/kg): 0 | Teratogenesis ([5]; 25 mg/kg): 0 | Angiogenesis (blood vessel density) in CAM assay [6]: inhibits angiogenesis
